Results on ten compounds are retold here after ChEMBL document CHEMBL1201862, “PubChem BioAssay data set” (2004).

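Dose response: 5 concentrations. Exposure: 48 h. Format: 96-well plates. Endpoint: linear interpolation; highest concentration if not reached. At the GI50, growth is halved.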 Activity calls are given as the source filed them. No stated cut-off is given here; in the data, active = GI50 up to about 1.1 µM and inactive = higher. *1 amine or outer side, *2 acyl side, *3 side chain or, on linkers, in order; H or OH if unused. Where a SMILES comes first, the peptide text is derived from it. [ ]: non-standard residue; d: D form. The star is where a group is joined. ξ: configuration not given here. X26 = O=C([C@H]1CCC[C@H]1N[*:1])[*:2]; ξW = NC(Cc1c[nH]c2ccccc12)C(=O)O; ξF = NC(Cc1ccccc1)C(=O)O; Boc = CC(C)(C)OC(=O)*; ξK = NCCCCC(N)C(=O)O; ξT = CC(O)C(N)C(=O)O; tBu = CC(C)(C)*

Some test systems named below: A498; ACHN; CAKI-1; COLO 205; HCT-116; HCT-15; HOP-92; Hs-578T; KM12; MCF7; MDA-N; NCI-H23; NCI-H460; PC-3; SF-268; SK-MEL-5; UACC-257; UO-31; NCI-H226; RPMI-8226.
Holding throughout (experiment): inhibition of tumour cell growth, NCI panel, 48 h

Take `N#CCc1nc(Cc2ccccc2)n[nH]1`: the GI50 with A498 is > 100 µM (inactive); with ACHN it was > 100 µM (inactive); with CAKI-1 it was > 100 µM (inactive); in the assay on COLO 205 it was > 100 µM (inactive); in the assay on HCT-116, > 100 µM (inactive); with HCT-15, above 100 µM. Moreover, the GI50 in the assay with HOP-92, in the assay with Hs-578T, in the assay on KM12, in the assay on MCF7, in the assay on MDA-N and in the assay with NCI-H23 was > 100 µM (inactive) throughout. The GI50 in the assay with NCI-H460, with PC-3, in the assay on SF-268, with SK-MEL-5, in the assay with UACC-257 and in the assay on UO-31 was > 100 µM (inactive) in each case.

Regarding `O=C(C1OC1c1ccc([N+](=O)[O-])cc1)C12CC3CC(CC(C3)C1)C2` (centres undefined), the GI50 in the assay with A498 was 20.9 µM (inactive); with ACHN, 18.5 µM (inactive); in the assay with CAKI-1 it was 20.3 µM (inactive); with COLO 205, 19.2 µM (inactive); in the assay with HCT-116 it was 7.59 µM (inactive); in the assay with HCT-15, 13.2 µM. In addition, the GI50 in the assay with HOP-92 is 20.3 µM (inactive); with Hs-578T it was 19 µM (inactive); in the assay with KM12, 14.7 µM (inactive); with MCF7, 13.3 µM (inactive); in the assay on MDA-N, 11.6 µM (inactive); in the assay with NCI-H226 it was 17.2 µM (inactive). Moreover, the GI50 in the assay with NCI-H23 is 13.4 µM (inactive); in the assay on NCI-H460, 13.6 µM (inactive); in the assay on PC-3, 14.6 µM (inactive); in the assay with SF-268 it was 18.5 µM (inactive); in the assay with SK-MEL-5, 15.6 µM (inactive); with UACC-257, 14.7 µM (inactive). In addition, the GI50 with UO-31 is 18.3 µM (inactive).

Consider `COC(=O)C1=C(O)C(C(=O)OC)[C@@]2(O)[C@@H](C(=O)OC)C(c3ccc(OC(=O)/C(=C/c4ccccc4)c4ccccc4)cc3)C[C@@H]1[C@@H]2C(=O)OC` (some centres undefined), for which the GI50 in the assay with A498 was 40.8 µM (inactive); in the assay on ACHN, 19.7 µM (inactive); with CAKI-1 it was 11.9 µM (inactive); in the assay on COLO 205 it was 40 µM (inactive); with HCT-116 it was 5 µM (inactive); in the assay on HCT-15, 7.18 µM. The GI50 in the assay with HOP-92 is 14.4 µM (inactive); with Hs-578T, 27.7 µM (inactive); in the assay with KM12 it was 27.9 µM (inactive); in the assay on MCF7, 10.5 µM (inactive); with MDA-N, 6.35 µM (inactive); in the assay with NCI-H226, 9.86 µM (inactive). In addition, the GI50 with NCI-H23 was > 100 µM (inactive); in the assay with NCI-H460, 5.21 µM (inactive); with PC-3, 32.5 µM (inactive); in the assay with SF-268, 47.3 µM (inactive); in the assay with SK-MEL-5, 26.8 µM (inactive); in the assay with UACC-257, 18.9 µM (inactive). Moreover, the GI50 in the assay on UO-31 is 10.9 µM (inactive).

As for `CC(NC(=O)C1CCCN1C(=O)CNC(=O)OC(C)(C)C)C(=O)O` (stereo not drawn) (Boc-Gly-Pro-Ala-OH; configuration not given here), the GI50 was > 100 µM (inactive) in the assay with ACHN; > 100 µM (inactive) with CAKI-1; > 100 µM (inactive) with COLO 205; above 100 µM in the assay on HCT-15; 62.5 µM (inactive) in the assay with HOP-92; > 100 µM (inactive) with Hs-578T. Further, the GI50 in the assay with KM12, in the assay with MCF7, in the assay with MDA-N, in the assay with NCI-H226, in the assay with NCI-H23 and with NCI-H460 was > 100 µM (inactive) throughout. Also, the GI50 in the assay with PC-3, with RPMI-8226, in the assay on SF-268, in the assay on SK-MEL-5, in the assay on UACC-257 and with UO-31 was > 100 µM (inactive) each time.

With `CC(=O)Oc1ccn2nc(C)c(Cc3c(C)nn4ccc(OC(C)=O)cc34)c2c1`, the GI50 in the assay on ACHN is 98.2 µM (inactive); in the assay with CAKI-1 it was 51.8 µM (inactive); with HCT-116, > 100 µM (inactive); in the assay on HCT-15, above 100 µM; with HOP-92, > 100 µM (inactive); in the assay on Hs-578T, 32.4 µM (inactive). Besides, the GI50 is > 100 µM (inactive) in the assay on KM12; > 10 µM (inactive) in the assay with MCF7; > 10 µM (inactive) in the assay on MDA-N; > 100 µM (inactive) in the assay on NCI-H226; > 100 µM (inactive) in the assay on NCI-H23; 50.9 µM (inactive) in the assay with NCI-H460. Further, the GI50 in the assay with PC-3 is > 10 µM (inactive); with SF-268, > 100 µM (inactive); in the assay with SK-MEL-5, > 100 µM (inactive); in the assay on UACC-257, 47.1 µM (inactive).

On to `CC(OC(C)(C)C)C1NC(=O)C(CCCCNC(=O)OC(C)(C)C)NC(=O)C(Cc2c[nH]c3ccccc23)NC(=O)C(Cc2ccccc2)NC(=O)[C@H]2CCC[C@H]2NC(=O)C(Cc2ccccc2)NC1=O` (some centres undefined) (cyclo([X26][ξF][ξW][ξK](Boc)[ξT](tBu)[ξF])), for which the GI50 with ACHN was > 100 µM (inactive); with CAKI-1 it was > 100 µM (inactive); with COLO 205 it was 18.9 µM (inactive); in the assay on HCT-116, 7.26 µM (inactive); with HCT-15, above 100 µM; in the assay on HOP-92, > 100 µM (inactive). Further, the GI50 in the assay on Hs-578T was 2.67 µM (inactive); in the assay on KM12, > 100 µM (inactive); in the assay on MCF7, 11.6 µM (inactive); in the assay with MDA-N, 56.2 µM (inactive); with NCI-H226, 39.2 µM (inactive); with NCI-H23, 23.8 µM (inactive). Further, the GI50 in the assay with NCI-H460 was 38.2 µM (inactive); with PC-3, 6.37 µM (inactive); with RPMI-8226, 8.71 µM (inactive); in the assay with SF-268, > 100 µM (inactive); in the assay with SK-MEL-5 it was 3.13 µM (inactive); in the assay on UACC-257, 5.41 µM (inactive). In the assay with UO-31, the GI50 is > 100 µM (inactive).

For `COC(=O)c1ccccc1CC1Cc2ccc3c(c2C1=O)CCC3` (centres undefined), the GI50 in the assay on ACHN is 41.5 µM (inactive); in the assay on CAKI-1 it was 55.1 µM (inactive); with COLO 205, 29.9 µM (inactive); with HCT-116 it was 37.1 µM (inactive); with HCT-15 it was 50 µM; with HOP-92, 22.4 µM (inactive). Moreover, the GI50 in the assay on Hs-578T is 43.3 µM (inactive); in the assay on KM12, 64.9 µM (inactive); in the assay on MCF7, 20.7 µM (inactive); in the assay on MDA-N it was 33.5 µM (inactive); with NCI-H226 it was 77.8 µM (inactive); in the assay on NCI-H23 it was 39.6 µM (inactive). In addition, the GI50 is 92.3 µM (inactive) with NCI-H460; 22.5 µM (inactive) in the assay with PC-3; 30.9 µM (inactive) with RPMI-8226; > 100 µM (inactive) with SF-268; 23 µM (inactive) with SK-MEL-5; 32.4 µM (inactive) in the assay with UACC-257. In addition, the GI50 in the assay with UO-31 was 49.4 µM (inactive).

For `CC(C)c1c(O)ccc2c1CCC1C(C)(C)CCCC21C` (centres undefined), the GI50 with ACHN is 17.1 µM (inactive); in the assay with CAKI-1, 16.3 µM (inactive); in the assay on COLO 205 it was 17.8 µM (inactive); with HCT-116, 17.2 µM (inactive); in the assay with HCT-15, 18.9 µM; in the assay with HOP-92, 18.6 µM (inactive). The GI50 in the assay on Hs-578T is 26.7 µM (inactive); in the assay with KM12, 20.5 µM (inactive); in the assay on MCF7, 19.1 µM (inactive); in the assay on MDA-N it was 17.1 µM (inactive); in the assay on NCI-H226, 17.7 µM (inactive); with NCI-H23, 17.3 µM (inactive). Besides, the GI50 in the assay on NCI-H460 is 17.4 µM (inactive); in the assay on PC-3, 17.6 µM (inactive); with RPMI-8226 it was 22.9 µM (inactive); in the assay on SF-268 it was 19.9 µM (inactive); in the assay on SK-MEL-5, 16.3 µM (inactive); in the assay with UACC-257 it was 17.7 µM (inactive). The GI50 in the assay on UO-31 is 17.4 µM (inactive).

For the compound `CC1=NN(C(=O)CC(=O)Nc2ccccc2Cl)C(=O)C1/N=N\c1ccc(S(=O)(=O)c2ccc(/N=N/C3C(=O)N(C(=O)CC(=O)Nc4ccccc4Cl)N=C3C)cc2)cc1` (centres undefined), the GI50 was > 100 µM (inactive) in the assay on ACHN; > 100 µM (inactive) with CAKI-1; > 100 µM (inactive) in the assay with COLO 205; > 100 µM (inactive) with HCT-116; above 100 µM in the assay on HCT-15; > 100 µM (inactive) with HOP-92. The GI50 in the assay with Hs-578T, with KM12, in the assay with MCF7, in the assay with MDA-N, with NCI-H226 and in the assay with NCI-H23 was > 100 µM (inactive) each time. The GI50 in the assay on NCI-H460, in the assay on PC-3, with RPMI-8226, with SF-268, in the assay on SK-MEL-5 and in the assay with UACC-257 was > 100 µM (inactive) throughout. Moreover, the GI50 in the assay with UO-31 was > 100 µM (inactive).

For the compound `COc1cc(C2S/C(=C/c3ccccc3)C(=O)N2c2cccc([N+](=O)[O-])c2)cc(OC)c1OC` (centres undefined), the GI50 in the assay on A498 is > 100 µM (inactive); in the assay on ACHN, > 100 µM (inactive); with CAKI-1, 48.8 µM (inactive); in the assay on COLO 205, > 100 µM (inactive); in the assay with HCT-116 it was 36.2 µM (inactive); with HCT-15 it was 71.9 µM. The GI50 is 62.1 µM (inactive) in the assay with HOP-92; > 100 µM (inactive) in the assay with Hs-578T; 28.8 µM (inactive) with KM12; 47.8 µM (inactive) in the assay with MCF7; 22.9 µM (inactive) with MDA-N; > 100 µM (inactive) with NCI-H226. Further, the GI50 was > 100 µM (inactive) in the assay with NCI-H23; > 100 µM (inactive) in the assay with PC-3; 76.2 µM (inactive) in the assay on SF-268; 67.3 µM (inactive) in the assay on SK-MEL-5; > 100 µM (inactive) with UACC-257; 94.6 µM (inactive) in the assay on UO-31.
